Results from ChEMBL document CHEMBL1123693, “Amnesia-reversal activity of a series of cyclic imides” (1987).

Key:
Assay type in all cases: functional
[1] = test system: Mus musculus; experiment: Ability to reverse electroconvulsive shock (ECS) induced amnesia in mice, at a dose of 5 mg/Kg administered perorally
[2] = test system: Mus musculus; experiment: Reversal of electroconvulsive shock induced amnesia in mice following 20 mg/Kg p.o.
[3] = test system: Mus musculus; experiment: Ability to reverse electroconvulsive shock (ECS) induced amnesia in mice, at a dose of 80 mg/Kg administered perorally
[4] = test system: Mus musculus; experiment: Ability to reverse electroconvulsive shock (ECS) induced amnesia in mice, at a dose of 10 mg/Kg administered perorally
[5] = test system: Mus musculus; experiment: Reversal of electroconvulsive shock induced amnesia in mice following 100 mg/Kg p.o.
[6] = test system: Mus musculus; experiment: Reversal of electroconvulsive shock induced amnesia in mice following 1 mg/Kg p.o.
[7] = test system: Mus musculus; experiment: Ability to reverse electroconvulsive shock (ECS) induced amnesia in mice, at a dose of 1 mg/Kg administered perorally
[8] = test system: Mus musculus; experiment: Ability to reverse electroconvulsive shock (ECS) induced amnesia in mice, at a dose of 10 mg/kg administered perorally; details: route oral
[9] = test system: Mus musculus; experiment: Ability to reverse electroconvulsive shock (ECS) induced amnesia in mice, at a dose of 10 mg/Kg administered perorally(Exp-1)
[10] = test system: Mus musculus; experiment: Ability to reverse electroconvulsive shock (ECS) induced amnesia in mice, at a dose of 10 mg/Kg administered perorally(Exp-2)
[11] = test system: Mus musculus; experiment: Ability to reverse electroconvulsive shock (ECS) induced amnesia in mice, at a dose of 100 mg/Kg administered perorally(Exp-2)
[12] = test system: Mus musculus; experiment: Ability to reverse electroconvulsive shock (ECS) induced amnesia in mice, at a dose of 1.0 mg/Kg administered perorally(Exp-1)
[13] = test system: Mus musculus; experiment: Ability to reverse electroconvulsive shock (ECS) induced amnesia in mice, at a dose of 100 mg/Kg administered perorally(Exp-1)
[14] = test system: Mus musculus; experiment: Ability to reverse electroconvulsive shock (ECS) induced amnesia in mice, at a dose of 1.0 mg/Kg administered perorally(Exp-2)
[15] = test system: Mus musculus; experiment: Ability to reverse electroconvulsive shock (ECS) induced amnesia in mice, at a dose of 2.5 mg/Kg administered perorally
[16] = test system: Mus musculus; experiment: Ability to reverse electroconvulsive shock (ECS) induced amnesia in mice, at a dose of 1.25 mg/Kg administered perorally
[17] = test system: Mus musculus; experiment: Ability to reverse electroconvulsive shock (ECS) induced amnesia in mice, at a dose of 0.6 mg/Kg administered perorally
[18] = test system: Mus musculus; experiment: Ability to reverse electroconvulsive shock (ECS) induced amnesia in mice, at a dose of 0.63 mg/Kg administered perorally
[19] = test system: Mus musculus; experiment: Ability to reverse electroconvulsive shock (ECS) induced amnesia in mice, at a dose of 160 mg/Kg administered perorally
[20] = test system: Mus musculus; experiment: Ability to reverse electroconvulsive shock (ECS) induced amnesia in mice, at a dose of 40 mg/Kg administered perorally
[21] = test system: Mus musculus; experiment: Ability to reverse electroconvulsive shock (ECS) induced amnesia in mice, at a dose of 0.31 mg/Kg administered perorally
[22] = test system: Mus musculus; experiment: Ability to reverse electroconvulsive shock (ECS) induced amnesia in mice, at a dose of 320 mg/Kg administered perorally

| Structure (SMILES) | Reversal [1] | Reversal [2] | Reversal [3] | Reversal [4] | Reversal [5] | Reversal [6] | further results |
| --- | --- | --- | --- | --- | --- | --- | --- |
| O=C(O)CCCC1CCCC(=O)N1 (stereo unspecified) | 67% | 100% | 0% |  |  |  |  |
| O=C(CCC1CCC(=O)N1)Nc1ccncc1 (stereo unspecified) |  |  |  | 59% | 53% | 64% |  |
| CC(C)N(CCNC(=O)CCC1CCC(=O)N1)C(C)C (stereo unspecified) | 17% | 33% | 17% |  |  |  |  |
| COC(=O)CCSC1CCC(=O)N1 (stereo unspecified) |  |  |  |  | 87% |  | Reversal [7]: 53%; Reversal [8]: 25% |
| O=C(CCC1CCC(=O)N1)NCc1ccccc1 (stereo unspecified) | 0% | 62% | 50% |  |  |  |  |
| O=C1CCC(/C=C/C(=O)OCc2ccccc2)N1 (stereo unspecified) |  |  |  |  | 17% |  | Reversal [7]: 0%; Reversal [8]: 31% |
| O=C1CCC(CCCC(=O)OCc2ccccc2)N1 (stereo unspecified) |  |  |  | 24% | 43% | 70% |  |
| O=C1CCCC2CCCC(=O)N12 | 33% | 44% | 55% |  |  |  |  |
| O=C1CCC(CCC(=O)OCc2ccccc2Cl)N1 (stereo unspecified) |  |  |  |  |  |  | Reversal [9]: 80%; Reversal [10]: 85%; Reversal [11]: 31%; Reversal [12]: 30%; Reversal [13]: 70%; Reversal [14]: 15% |
| Cc1cccc(C)c1NC(=O)CCC1CCC(=O)N1 (stereo unspecified) |  |  |  | 56% | 50% | 49% |  |
| O=C(O)CCCC1CCC(=O)N1 (stereo unspecified) |  |  |  | 50% | 100% | 34% |  |
| O=C1CCC(CCC(=O)OCc2cccc(Cl)c2)N1 (stereo unspecified) |  |  |  | 30% | 90% | 100% |  |
| CC12CCC(=O)N1C(=O)CC2 | 31% | 77% | 85% |  |  |  |  |
| CC1CC2CC(C)C(=O)N2C1=O (stereo unspecified) | 0% | 20% | 20% |  |  |  |  |
| O=C(O)CCC1CCCCC(=O)N1 (stereo unspecified) |  |  |  | 38% | 67% | 0% |  |
| O=C1CCC(CCC(=O)NC23C[C@H]4C[C@@H](C2)C[C@@H](C3)C4)N1 (stereo partly specified) |  |  |  | 40% | 57% | 57% |  |
| O=C1CCC2SCC(=O)N12 (stereo unspecified) |  |  |  | 0% | 0% | 31% |  |
| O=C1CCCC2CCC(=O)N12 (stereo unspecified) | 29% | 50% | 64% |  |  |  | Reversal [15]: 56%; Reversal [16]: 18% |

| Structure (SMILES) | Reversal [1] | Reversal [2] | Reversal [3] | Reversal [4] | Reversal [5] | Reversal [6] | further results |
| --- | --- | --- | --- | --- | --- | --- | --- |
| COC(=O)CCC1CCC(=O)N1 (stereo unspecified) | 75% | 100% | 75% |  |  |  |  |
| O=C1CCC(CCC(=O)OCc2ccc(Cl)cc2)N1 (stereo unspecified) |  |  |  | 25% | 42% | 0% |  |
| O=C(O)CCC1CCC(=O)N1 (stereo unspecified) | 89% | 100% | 67% |  |  |  | Reversal [17]: 58%; Reversal [15]: 91%; Reversal [16]: 83% |
| O=C(O)CCC1CCCC(=O)N1 (stereo unspecified) | 86% | 70% | 8% |  |  | 67% | Reversal [15]: 60%; Reversal [16]: 56% |
| O=C(O)CC1CCC(=O)N1 (stereo unspecified) |  |  |  | 0% | 42% | 2% |  |
| CC(OC(=O)CCC1CCC(=O)N1)c1ccccc1 (stereo unspecified) |  |  |  | 60% | 16% | 13% |  |
| O=C1CCCCC2CCC(=O)N12 (stereo unspecified) | 14% | 9% | 36% |  |  |  |  |
| O=C1CCC2CCC(O)N12 (stereo unspecified) |  |  |  |  | 17% |  | Reversal [7]: 19%; Reversal [8]: 27% |
| O=C1CCSC2CCC(=O)N12 (stereo unspecified) |  |  |  | 51% | 55% | 19% |  |
| NC(=O)CCC1CCC(=O)N1 (stereo unspecified) |  |  |  | 33% | 64% | 64% |  |
| O=C(CCC1CCC(=O)N1)NCCc1ccc(O)cc1 (stereo unspecified) |  |  |  | 0% | 0% | 20% |  |
| O=C1CCC2CCC(=O)N12 [ROLZIRACETAM] | 69% | 31% | 63% |  |  |  | Reversal [15]: 25%; Reversal [18]: 73%; Reversal [16]: 27%; Reversal [19]: 62%; Reversal [20]: 92%; Reversal [21]: 19%; Reversal [22]: 85% |
| CCOC(=O)CCC1CCC(=O)N1 (stereo unspecified) | 10% | 0% | 27% |  |  |  |  |
| CCOC(=O)CCSC1CCC(=O)N1 (stereo unspecified) |  |  |  |  | 44% |  | Reversal [7]: 49%; Reversal [8]: 66% |
| O=C(O)CSC1CCC(=O)N1 (stereo unspecified) |  |  |  |  | 31% |  | Reversal [7]: 64%; Reversal [8]: 21% |
| CC1CC2CCC(=O)N2C1=O (stereo unspecified) | 50% | 0% | 30% |  |  |  | Reversal [15]: 50%; Reversal [16]: 20% |
| O=C1CCC(CCC(=O)OCc2ccccc2)N1 (stereo unspecified) | 64% | 64% | 71% |  |  |  | Reversal [17]: 44%; Reversal [15]: 67%; Reversal [16]: 56% |
| CC(C)OC(=O)CCC1CCC(=O)N1 (stereo unspecified) |  | 42% |  |  | 16% | 42% |  |
